The text below walks through data of PubChem BioAssay (NCI).

Holding throughout (assay): inhibition of tumour cell growth, NCI panel, 48 h
The test system of test [1] is HCC-2998 colon.
For test [2], the system named is HL-60(TB) leukemia.
Test [3] deals with MDA-MB-435.
The subject of test [4] is OVCAR-3 ovarian.
In test [5] the test system is SF-295 CNS.
Test [6] deals with SK-MEL-2 melanoma.
Test [7] deals with SK-MEL-5 melanoma.
The test system of test [8] is SW-620 colon.
The test system of test [9] is UO-31 renal.
Test [10] concerns EKVX NSCLC.

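Test compounds were applied to cells in 96-well plates for 48 hours at 5 doses. Here, GI50 denotes the concentration required for 50% inhibition of growth. Definition used: TGI = concentration required for complete inhibition of growth.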

Take `COc1cc2c(cc1OC)C(=O)C(Br)CC2` (stereo not drawn): the GI50 in test [1] is 11.5 µM; in test [2], 4.91 µM; in test [3] it was 2.87 µM; in test [4], 2.5 µM; in test [5], 14.3 µM; in [6], 3.6 µM. Also, the GI50 in test [7] was 1.7 µM; in test [8], 2.71 µM; in [9], 2.38 µM. Further, the TGI in test [1] stood at 24.5 µM; in test [2], 28.9 µM; in [3] it was 10.4 µM; in test [4], 6.88 µM; in test [5] it was 28.4 µM; in test [6], 9.98 µM. Also, the TGI was 3.19 µM in test [7], 6.39 µM in [8] and 6.77 µM in test [9].

In the case of `OB([O][Hg][c]1ccccc1)[O][Hg][c]1ccccc1`, the GI50 in test [1] is 1.86 µM; in [2], 0.0886 µM; in [3], 0.475 µM; in test [4], 0.0812 µM; in test [5], 1.6 µM; in test [6] it was 0.168 µM. For the same compound, the GI50 was 0.538 µM in test [7], 0.191 µM in test [8] and 0.539 µM in test [9]. Also, the TGI in [1] is 3.36 µM; in test [2], 0.378 µM; in [3], 1.63 µM; in [4], 0.213 µM; in [5], 3.17 µM; in test [6], 0.509 µM. In addition, the TGI in test [7] amounted to 1.85 µM; in test [8] it was 0.5 µM; in test [9], 1.63 µM.

With `Cc1c(NC(=O)C(=O)N=NC(=O)c2ccncc2)c(O)c2ccccc2c1O`, the TGI in [10] was 19.9 µM; in [1], 30.7 µM; in [2], over 67.5 µM; in [4], 29.1 µM; in test [5], 23.3 µM; in test [6], 11 µM. Also, the TGI in test [7] was found to be 5.8 µM; in test [8], 33 µM; in test [9], 40.5 µM.

Regarding `CCCCCCC(=O)C/C(CCC(=O)N(Cc1ccccc1)Cc1ccccc1)=N\Nc1ccc([N+](=O)[O-])cc1[N+](=O)[O-]`, the TGI in [10], in [1], in [2], in [4], in [5] and in [6] was over 100 µM throughout. In addition, the TGI in [7], in [8] and in test [9] was over 100 µM in each case.

Consider `NC(N)=NC(CC(=O)O)c1ccccc1` (stereo not drawn), for which the TGI in test [10], in test [3], in [4], in test [5], in [6] and in test [7] was over 100 µM each time. Moreover, the TGI in test [8] and in [9] was over 100 µM throughout.

On to `N#C/C(=C\c1c(-c2ccccc2)[nH]c2ccccc12)C(=O)c1ccc(Cl)cc1`, for which the GI50 in test [10] is 5.51 µM; in test [1] it was 2.11 µM; in test [2], 0.385 µM; in test [4] it was 1.52 µM; in [5] it was 2.18 µM; in test [6], 7.09 µM. For the same compound, the GI50 in test [7] is 0.782 µM; in test [8] it was 0.554 µM; in test [9], 5.85 µM. The TGI in [10] was over 100 µM; in [1] it was 19.5 µM; in test [2], 3.17 µM; in test [4], 4.65 µM; in [5], 16.4 µM; in [6] it was over 39.3 µM. Further, the TGI is 12.5 µM in test [7], over 100 µM in test [8] and 36.3 µM in test [9].

On to `CNC(=O)OCc1nc(SC(C)C)n(C)c1COC(=O)NC`, for which the TGI in test [10], in [1], in [2], in [4], in [5] and in test [6] was over 100 µM throughout. Also, the TGI in test [7], in [8] and in test [9] was over 100 µM throughout.

With `CC(Cl)(/C=C/Cl)C(Cl)/C=C/C(Cl)(CCl)CBr` (stereo not drawn), the TGI was over 77.3 µM in test [10]; 33.2 µM in test [1]; 5.32 µM in test [2]; 25.3 µM in [4]; 20.2 µM in [5]; 19.8 µM in test [6]. Moreover, the TGI worked out at 25.1 µM in test [7], 8 µM in [8] and 28.6 µM in test [9].

As to `COc1ccc(-c2oc3cc(O)c(OC)c(O)c3c(=O)c2OC2OC(CO)C(O)C(O)C2O)cc1` (stereo not drawn), the TGI in test [10], in test [1], in test [2], in [4], in test [5] and in test [6] was over 100 µM in each case. For the same compound, the TGI in test [7], in [8] and in [9] was over 100 µM in each case.

For `COc1cc[nH]c1/C=C1\C(=O)Nc2ccc(F)c(C#C[C@@H](O)[C@@H](N)[C@@H](C)O)c21`, the GI50 is 0.727 µM in [1]; 0.42 µM in [2]; 0.561 µM in test [3]; 0.685 µM in [4]; 0.689 µM in test [5]; 0.39 µM in test [6]. Also, the GI50 in test [7] was 0.676 µM; in [8], 0.559 µM; in test [9], 0.745 µM. The TGI turned out to be 2.64 µM in test [1]; 1.55 µM in [2]; 2.83 µM in test [3]; 2.26 µM in test [4]; 3.44 µM in [5]; 0.923 µM in [6]. Besides, the values for the TGI in [7], in test [8] and in test [9] were 2.35 µM, 3.07 µM and 2.7 µM, respectively.

With `O=[N+]([O-])c1ccc(N/N=C\c2cc(Cl)ccc2O)nc1`, the GI50 in test [10] was 8.05 µM; in test [2], 0.65 µM; in [3], 1.76 µM; in test [4], 0.42 µM; in test [5], 2.15 µM; in [6], 3.24 µM. The results for the GI50 in test [7], in [8] and in [9] were 1.81 µM, 0.873 µM and 0.3 µM, respectively. In addition, the TGI in [10] was over 100 µM; in [2], 8.02 µM; in test [3], over 100 µM; in test [4], 12.1 µM; in [5], 11.7 µM; in test [6] it was 29.4 µM. For the same compound, the TGI in [7] was 8.25 µM; in [8], over 100 µM; in [9], 5.45 µM.
